Consider 37 molecules from patent US9156845B2, “4-(substituted amino)-7H-pyrrolo[2,3-d] pyrimidines as LRRK2 inhibitors” (Pfizer Inc., priority 2012, dated 2015).

Experiment [1] addresses mutant G2019S LRRK2 (Homo sapiens (Human), UniProt Q5S007, G2019S). The experiment is described as follows: LRRK2 Lantha Screen kinase assay, mutant enzyme. The format is biochemical. Particulars: geometric mean of 2-5 determinations unless otherwise indicated (a: >=6 determinations; b: single determination).
Method: LRRK2 kinase activity was measured using Lantha Screen technology from Invitrogen. GST-tagged truncated LRRK2 from Invitrogen (Cat # PV4874) was incubated with a fluorescein-labeled peptide substrate based upon ezrin/radixin/moesin (ERM), also known as LRRKtide (Invitrogen cat #PR8976A), in the presence of a dose response of compound. Upon completion, the assay was stopped and detected with a terbium labeled anti-phospho-ERM antibody (Invitrogen, cat #PR8975A). […] Aliquots (3.5 μL) of the 100% DMSO dose response were mixed with 46.5 μL water then 1 μL of this mixture was added to the 3 μL substrate mix in the 384-well plate. The kinase reaction was started with 3 μL of a working solution of LRRK2 enzyme at a concentration of 4 μg/mL. […] The reaction was allowed to progress at room temperature for two hours and then stopped with the addition of 7 μL of detection buffer (20 mM Tris pH 7.6, 0.01% NP-40, 0.02% NaN3, 6 mM EDTA with 2 nM terbium labeled anti-phospho-ERM).
All final concentrations of substrate ATP and enzyme were the same.
In experiment [2] the target is GST-tagged truncated LRRK2 (Homo sapiens (Human), UniProt Q5S007). Nature of the experiment: LRRK2 Lantha Screen kinase assay. To be noted: geometric mean of 2-5 determinations unless otherwise indicated (a: >=6 determinations; b: single determination); read-out: LRRK2 WT IC50. It counts as biochemical.
GST-tagged truncated LRRK2, sequence (Q5S007 970-2527): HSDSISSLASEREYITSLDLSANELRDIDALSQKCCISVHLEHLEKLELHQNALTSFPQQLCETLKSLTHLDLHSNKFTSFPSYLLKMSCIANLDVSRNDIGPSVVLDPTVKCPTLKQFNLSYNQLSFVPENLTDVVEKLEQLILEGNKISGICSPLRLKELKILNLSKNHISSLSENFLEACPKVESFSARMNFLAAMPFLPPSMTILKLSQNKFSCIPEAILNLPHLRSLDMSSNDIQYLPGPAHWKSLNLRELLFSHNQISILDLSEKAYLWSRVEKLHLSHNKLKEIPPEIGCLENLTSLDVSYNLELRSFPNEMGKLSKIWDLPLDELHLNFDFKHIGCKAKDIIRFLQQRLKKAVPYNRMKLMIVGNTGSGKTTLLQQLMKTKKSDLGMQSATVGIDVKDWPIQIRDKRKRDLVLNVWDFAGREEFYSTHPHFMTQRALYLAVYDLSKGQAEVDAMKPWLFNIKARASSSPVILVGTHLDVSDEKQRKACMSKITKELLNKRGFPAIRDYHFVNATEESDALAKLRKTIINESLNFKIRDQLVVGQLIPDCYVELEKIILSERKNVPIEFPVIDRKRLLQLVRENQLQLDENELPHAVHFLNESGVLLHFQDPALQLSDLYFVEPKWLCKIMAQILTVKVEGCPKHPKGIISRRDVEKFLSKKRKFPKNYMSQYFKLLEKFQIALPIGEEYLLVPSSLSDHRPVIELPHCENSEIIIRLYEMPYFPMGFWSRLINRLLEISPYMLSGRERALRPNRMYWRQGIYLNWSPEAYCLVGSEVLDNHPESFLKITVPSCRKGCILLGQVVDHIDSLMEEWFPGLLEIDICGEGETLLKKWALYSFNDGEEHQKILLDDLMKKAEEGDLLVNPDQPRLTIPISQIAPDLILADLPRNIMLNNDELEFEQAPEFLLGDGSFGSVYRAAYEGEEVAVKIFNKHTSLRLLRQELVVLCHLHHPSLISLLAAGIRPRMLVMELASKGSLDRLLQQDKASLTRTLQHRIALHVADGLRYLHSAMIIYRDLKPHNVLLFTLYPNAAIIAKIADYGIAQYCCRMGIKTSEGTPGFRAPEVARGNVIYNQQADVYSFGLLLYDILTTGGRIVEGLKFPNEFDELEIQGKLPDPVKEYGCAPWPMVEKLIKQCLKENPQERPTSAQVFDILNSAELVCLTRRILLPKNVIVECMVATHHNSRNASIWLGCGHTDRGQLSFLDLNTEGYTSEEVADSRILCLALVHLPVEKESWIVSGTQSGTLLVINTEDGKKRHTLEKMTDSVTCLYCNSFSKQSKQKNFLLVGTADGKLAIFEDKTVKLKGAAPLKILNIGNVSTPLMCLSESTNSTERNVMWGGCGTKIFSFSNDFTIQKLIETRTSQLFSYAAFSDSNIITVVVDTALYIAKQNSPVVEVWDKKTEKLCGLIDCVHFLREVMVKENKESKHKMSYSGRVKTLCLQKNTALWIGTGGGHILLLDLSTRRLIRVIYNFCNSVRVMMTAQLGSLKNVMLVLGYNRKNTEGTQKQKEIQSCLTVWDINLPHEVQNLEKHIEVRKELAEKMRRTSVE

mutant G2019S LRRK2, sequence (Q5S007 970-2527 G2019S): as the sequence (Q5S007 970-2527) above, with G1050S counted along it

In the case of `COc1ccc(C#N)cc1-c1c[nH]c2ncnc(N3C[C@H](C)C[C@H](C)C3)c12` [Example 65, 3-[4-(3,5-cis-dimethylpiperidin-1-yl)-7H-pyrrolo[2,3-d]pyrimidin-5-yl]-4-methoxybenzonitrile], the IC50 in experiment [1] was 176 nM; in experiment [2], 85 nM.
As to `COc1ccc(C#N)cc1-c1c[nH]c2ncnc(N3CCC[C@H](C)C3)c12` [Example 66, 4-methoxy-3-{4-[(3S)-3-methylpiperidin-1-yl]-7H-pyrrolo[2,3-d]pyrimidin-5-yl}benzonitrile], the IC50 in experiment [1] came to 51 nM; in experiment [2], 21 nM.
Consider `C[C@H]1CCCN(c2ncnc3[nH]cc(-c4cccc(C#N)c4F)c23)C1` [Example 67, 2-fluoro-3-{4-[(3S)-3-methylpiperidin-1-yl]-7H-pyrrolo[2,3-d]pyrimidin-5-yl}benzonitrile], for which the values for the concentration for half-maximal inhibition (IC50) in experiment [1] and in experiment [2] were 35 nM and 11 nM, respectively.
Turning to `CN(C)c1ncnc2[nH]cc(-c3ccccc3)c12` [Example 68, N,N-dimethyl-5-phenyl-7H-pyrrolo[2,3-d]pyrimidin-4-amine], the IC50 in experiment [1] came to 39 nM; in experiment [2] it was 63 nM.
In the same order, the values of `CN(C)c1ncnc2[nH]cc(-c3cccc(C#N)c3F)c12` [Example 69, 3-[4-(dimethylamino)-7H-pyrrolo[2,3-d]pyrimidin-5-yl]-2-fluorobenzonitrile] are 17 nM and 6 nM.
As for `N#Cc1cccc(-c2c[nH]c3ncnc(N4CCCC4)c23)c1` [Example 70, 3-[4-(pyrrolidin-1-yl)-7H-pyrrolo[2,3-d]pyrimidin-5-yl]benzonitrile], the figures for the IC50 in experiment [1] and in experiment [2] were 64 nM and 8 nM, respectively.
For `CN(C)c1ncnc2[nH]cc(-c3cc(C#N)ccc3F)c12` [Example 72, 3-[4-(dimethylamino)-7H-pyrrolo[2,3-d]pyrimidin-5-yl]-4-fluorobenzonitrile], in that order: 190 nM and 37 nM.
For `CCN(CC)c1ncnc2[nH]cc(-c3cccc(C#N)c3)c12` [Example 73, 3-[4-(diethylamino)-7H-pyrrolo[2,3-d]pyrimidin-5-yl]benzonitrile], the IC50 in experiment [1] stood at 119 nM; in experiment [2], 13 nM.
On to `CN(C)c1ncnc2[nH]cc(-c3cc(F)cc(C#N)c3)c12` [Example 75, 3-[4-(dimethylamino)-7H-pyrrolo[2,3-d]pyrimidin-5-yl]-5-fluorobenzonitrile], for which the figures for the IC50 in experiment [1] and in experiment [2] were 396 nM and 53 nM, respectively.
As for `N#Cc1cccc(-c2c[nH]c3ncnc(N4CCOCC4)c23)c1F` [Example 78, 2-fluoro-3-[4-(morpholin-4-yl)-7H-pyrrolo[2,3-d]pyrimidin-5-yl]benzonitrile], the IC50 in experiment [1] amounted to 7 nM; in experiment [2], 2 nM.
For `C[C@@H]1CN(c2ncnc3[nH]cc(-c4cccc(C#N)c4)c23)CCO1` [Example 79, 3-{4-[(2R)-2-methylmorpholin-4-yl]-7H-pyrrolo[2,3-d]pyrimidin-5-yl}benzonitrile], the figures for the half-maximal inhibitory concentration (IC50) in experiment [1] and in experiment [2] were 69 nM and 18 nM, respectively.
For `N#Cc1ccc(F)c(-c2c[nH]c3ncnc(N4CCOCC4)c23)c1` [Example 80, 4-fluoro-3-[4-(morpholin-4-yl)-7H-pyrrolo[2,3-d]pyrimidin-5-yl]benzonitrile], the IC50 in experiment [1] was 393 nM; in experiment [2], 49 nM.
On to `Cn1cc(-c2c[nH]c3ncnc(N4CCC(F)CC4)c23)cn1` [Example 81, 4-(4-fluoropiperidin-1-yl)-5-(1-methyl-1H-pyrazol-4-yl)-7H-pyrrolo[2,3-d]pyrimidine], for which the IC50 in experiment [1] amounted to 50 nM; in experiment [2] it was 36 nM.
Regarding `N#Cc1ccccc1-c1c[nH]c2ncnc(N3CCOCC3)c12` [Example 82, 2-[4-(morpholin-4-yl)-7H-pyrrolo[2,3-d]pyrimidin-5-yl]benzonitrile], the figures for the IC50 in experiment [1] and in experiment [2] were 148 nM and 95 nM, respectively.
In the case of `Clc1cccc(-c2c[nH]c3ncnc(N4CCOCC4)c23)c1` [Example 83, 5-(3-chlorophenyl)-4-(morpholin-4-yl)-7H-pyrrolo[2,3-d]pyrimidine], the 50% inhibitory concentration (IC50) in experiment [1] is 13 nM; in experiment [2], 8 nM.
`Fc1ccccc1-c1c[nH]c2ncnc(N3CCOCC3)c12` [Example 84, 5-(2-fluorophenyl)-4-(morpholin-4-yl)-7H-pyrrolo[2,3-d]pyrimidine]: the 50% inhibitory concentration (IC50) was found to be 30 nM in experiment [1] and 22 nM in experiment [2].
For `COc1cc(F)cc(-c2c[nH]c3ncnc(N4CCOCC4)c23)c1` [Example 85, 5-(3-fluoro-5-methoxyphenyl)-4-(morpholin-4-yl)-7H-pyrrolo[2,3-d]pyrimidine], the IC50 in experiment [1] was determined as 20 nM; in experiment [2], 9 nM.
`Fc1ccc(F)c(-c2c[nH]c3ncnc(N4CCOCC4)c23)c1` [Example 86, 5-(2,5-difluorophenyl)-4-(morpholin-4-yl)-7H-pyrrolo[2,3-d]pyrimidine]: the IC50 stood at 145 nM in experiment [1] and 76 nM in experiment [2].
In the same order, the values of `Fc1cccc(-c2c[nH]c3ncnc(N4CCOCC4)c23)c1F` [Example 87, 5-(2,3-difluorophenyl)-4-(morpholin-4-yl)-7H-pyrrolo[2,3-d]pyrimidine] are 24 nM and 12 nM.
On to `Fc1ccc(Cl)cc1-c1c[nH]c2ncnc(N3CCOCC3)c12` [Example 88, 5-(5-chloro-2-fluorophenyl)-4-(morpholin-4-yl)-7H-pyrrolo[2,3-d]pyrimidine], for which the IC50 in experiment [1] was determined as 12 nM; in experiment [2] it was 9 nM.
For the molecule `OCc1cccc(-c2c[nH]c3ncnc(N4CCOCC4)c23)c1F` [Example 89, {2-fluoro-3-[4-(morpholin-4-yl)-7H-pyrrolo[2,3-d]pyrimidin-5-yl]phenyl}methanol], the IC50 in experiment [1] came to 75 nM; in experiment [2], 32 nM.
On to `Fc1ccc(-c2c[nH]c3ncnc(N4CCOCC4)c23)c(F)c1` [Example 90, 5-(2,4-difluorophenyl)-4-(morpholin-4-yl)-7H-pyrrolo[2,3-d]pyrimidine], for which the concentration for half-maximal inhibition (IC50) was 62 nM in experiment [1] and 41 nM in experiment [2].
On to `Fc1cccc(-c2c[nH]c3ncnc(N4CCOCC4)c23)c1` [Example 91, 5-(3-fluorophenyl)-4-(morpholin-4-yl)-7H-pyrrolo[2,3-d]pyrimidine], for which the IC50 worked out at 21 nM in experiment [1] and 9 nM in experiment [2].
For `Fc1cc(F)cc(-c2c[nH]c3ncnc(N4CCOCC4)c23)c1` [Example 92, 5-(3,5-difluorophenyl)-4-(morpholin-4-yl)-7H-pyrrolo[2,3-d]pyrimidine], the IC50 in experiment [1] was found to be 238 nM; in experiment [2], 92 nM.
As to `c1ccc(-c2c[nH]c3ncnc(N4CCOCC4)c23)cc1` [Example 93, 4-(morpholin-4-yl)-5-phenyl-7H-pyrrolo[2,3-d]pyrimidine], the values for the IC50 in experiment [1] and in experiment [2] were 14 nM and 9 nM, respectively.
For `COc1ccc(F)cc1-c1c[nH]c2ncnc(N3CCOCC3)c12` [Example 94, 5-(5-fluoro-2-methoxyphenyl)-4-(morpholin-4-yl)-7H-pyrrolo[2,3-d]pyrimidine], in that order: 10 nM and 7 nM.
Take `Clc1ccccc1-c1c[nH]c2ncnc(N3CCOCC3)c12` [Example 95, 5-(2-chlorophenyl)-4-(morpholin-4-yl)-7H-pyrrolo[2,3-d]pyrimidine]: the results for the IC50 in experiment [1] and in experiment [2] were 33 nM and 21 nM, respectively.
For `Cc1ccc(F)cc1-c1c[nH]c2ncnc(N3CCOCC3)c12` [Example 96, 5-(5-fluoro-2-methylphenyl)-4-(morpholin-4-yl)-7H-pyrrolo[2,3-d]pyrimidine], in that order: 223 nM and 91 nM.
Consider `COc1cccc(-c2c[nH]c3ncnc(N4CCOCC4)c23)c1` [Example 97, 5-(3-methoxyphenyl)-4-(morpholin-4-yl)-7H-pyrrolo[2,3-d]pyrimidine], for which the IC50 in experiment [1] is 46 nM; in experiment [2] it was 28 nM.
Consider `OCc1cc(-c2c[nH]c3ncnc(N4CCOCC4)c23)ccc1F` [Example 98, {2-fluoro-5-[4-(morpholin-4-yl)-7H-pyrrolo[2,3-d]pyrimidin-5-yl]phenyl}methanol], for which the figures for the IC50 in experiment [1] and in experiment [2] were 135 nM and 70 nM, respectively.
As to `Fc1ccc(-c2c[nH]c3ncnc(N4CCOCC4)c23)cc1` [Example 99, 5-(4-fluorophenyl)-4-(morpholin-4-yl)-7H-pyrrolo[2,3-d]pyrimidine], the IC50 in experiment [1] was 154 nM; in experiment [2] it was 95 nM.
`OCc1cccc(-c2c[nH]c3ncnc(N4CCOCC4)c23)c1` [Example 100, {3-[4-(morpholin-4-yl)-7H-pyrrolo[2,3-d]pyrimidin-5-yl]phenyl}methanol]: the IC50 in experiment [1] is 19 nM; in experiment [2], 12 nM.
Turning to `COc1ccccc1-c1c[nH]c2ncnc(N3CCOCC3)c12` [Example 101, 5-(2-methoxyphenyl)-4-(morpholin-4-yl)-7H-pyrrolo[2,3-d]pyrimidine], the IC50 in experiment [1] was 23 nM; in experiment [2] it was 14 nM.
For `CSc1cccc(-c2c[nH]c3ncnc(N4CCOCC4)c23)c1` [Example 102, 5-[3-(methylsulfanyl)phenyl]-4-(morpholin-4-yl)-7H-pyrrolo[2,3-d]pyrimidine], in that order: 78 nM and 52 nM.
Turning to `c1cncc(-c2c[nH]c3ncnc(N4CCOCC4)c23)c1` [Example 103, 4-(morpholin-4-yl)-5-(pyridin-3-yl)-7H-pyrrolo[2,3-d]pyrimidine], the IC50 in experiment [1] is 159 nM; in experiment [2], 35 nM.
For `c1ccc2c(-c3c[nH]c4ncnc(N5CCOCC5)c34)cncc2c1` [Example 104, 4-[4-(morpholin-4-yl)-7H-pyrrolo[2,3-d]pyrimidin-5-yl]isoquinoline], the IC50 in experiment [1] came to 51 nM; in experiment [2] it was 27 nM.
As to `Brc1cncc(-c2c[nH]c3ncnc(N4CCOCC4)c23)c1` [Example 105, 5-(5-bromopyridin-3-yl)-4-(morpholin-4-yl)-7H-pyrrolo[2,3-d]pyrimidine], the IC50 came to 14 nM in experiment [1] and 6 nM in experiment [2].

For orientation: IC50 means the point on the concentration scale where inhibition reaches its midpoint.
